# Measurements reported in ChEMBL document CHEMBL3885881, “DrugMatrix”.
# Organism: Rattus norvegicus
# Test: DrugMatrix - Regimen: Daily Repeat
# Assay type: toxicity, organism-based, Sprague-Dawley
# Set-up: regimen Daily Repeat, gender Male, age 6-8 weeks
# Conditions: in vivo, po, route oral GAVAGE, vehicle 100 % WATER; for ABSOLUTE BASOPHIL / ABSOLUTE EOSINOPHIL / ABSOLUTE LYMPHOCYTE / ABSOLUTE MONOCYTE / ABSOLUTE SEGMENTED NEUTROPHIL / BASOPHIL / EOSINOPHIL / ERYTHROCYTE COUNT / HEMATOCRIT / HEMOGLOBIN / LEUKOCYTE COUNT / LYMPHOCYTE / MEAN CORPUSCULAR HEMOGLOBIN / MEAN CORPUSCULAR HEMOGLOBIN CONCENTRATION / MEAN CORPUSCULAR VOLUME / MONOCYTE / NEUTROPHIL / NUCLEATED RED BLOOD CELLS / PLATELET COUNT: tissue Blood; for ALANINE AMINOTRANSFERASE / ALBUMIN / ALKALINE PHOSPHATASE / ASPARTATE AMINOTRANSFERASE / BLOOD UREA NITROGEN / CARBON DIOXIDE / CHLORIDE / CHOLESTEROL / CREATINE PHOSPHOKINASE / CREATININE / GLUCOSE / LACTATE DEHYDROGENASE / LIPASE / PHOSPHORUS / POTASSIUM / SODIUM / TOTAL BILIRUBIN / TOTAL PROTEIN / URIC ACID: tissue Plasma
# [1] = 0.3 mg/kg, 120 h, dose level Low, time 5 day
# [2] = 6 mg/kg, 72 h, dose level High, time 3 day
# [3] = 6 mg/kg, 120 h, dose level High, time 5 day
structure (smiles),measurement,setting,value
Clc1cccc(Cl)c1N=C1NCCN1 [CLONIDINE],ABSOLUTE BASOPHIL,[1],0 CELLS/uL
same,ABSOLUTE EOSINOPHIL,[1],0 CELLS/uL
same,ABSOLUTE LYMPHOCYTE,[1],12125.33 CELLS/uL
same,ABSOLUTE MONOCYTE,[1],52.33 CELLS/uL
same,ABSOLUTE SEGMENTED NEUTROPHIL,[1],1322.33 CELLS/uL
same,BASOPHIL,[1],0%
same,EOSINOPHIL,[1],0%
same,ERYTHROCYTE COUNT,[1],5.47 x10E6/uL
same,HEMATOCRIT,[1],34.07%
same,HEMOGLOBIN,[1],13.73 G/DL
same,LEUKOCYTE COUNT,[1],13.5 x10E3/uL
same,LYMPHOCYTE,[1],89.33%
same,MEAN CORPUSCULAR HEMOGLOBIN,[1],25.13 pg
same,MEAN CORPUSCULAR HEMOGLOBIN CONCENTRATION,[1],40.3 G/DL
same,MEAN CORPUSCULAR VOLUME,[1],62.3 fL
same,MONOCYTE,[1],0.33%
same,NEUTROPHIL,[1],10.33%
same,NUCLEATED RED BLOOD CELLS,[1],0 /100WBC
same,PLATELET COUNT,[1],1266.67 x10E3/uL
same,ALANINE AMINOTRANSFERASE,[1],49.67 u/L
same,ALBUMIN,[1],4.07 G/DL
same,ALKALINE PHOSPHATASE,[1],360 u/L
same,ASPARTATE AMINOTRANSFERASE,[1],94 u/L
same,BLOOD UREA NITROGEN,[1],19 mg/dL
same,CARBON DIOXIDE,[1],27 mmol/L
same,CHLORIDE,[1],100.67 MEQ/L
same,CHOLESTEROL,[1],70 mg/dL
same,CREATINE PHOSPHOKINASE,[1],371.67 u/L
same,CREATININE,[1],0.17 mg/dL
same,GLUCOSE,[1],134.33 mg/dL
same,LACTATE DEHYDROGENASE,[1],289.33 u/L
same,LIPASE,[1],9 u/L
same,PHOSPHORUS,[1],11.17 mg/dL
same,POTASSIUM,[1],6.28 MEQ/L
same,SODIUM,[1],140.53 MEQ/L
same,TOTAL BILIRUBIN,[1],0.1 mg/dL
same,TOTAL PROTEIN,[1],5.57 G/DL
same,URIC ACID,[1],1.57 mg/dL
same,ABSOLUTE BASOPHIL,[2],0 CELLS/uL
same,ABSOLUTE EOSINOPHIL,[2],0 CELLS/uL
same,ABSOLUTE LYMPHOCYTE,[2],11339 CELLS/uL
same,ABSOLUTE MONOCYTE,[2],767 CELLS/uL
same,ABSOLUTE SEGMENTED NEUTROPHIL,[2],6827.33 CELLS/uL
same,BASOPHIL,[2],0%
same,EOSINOPHIL,[2],0%
same,ERYTHROCYTE COUNT,[2],6.6 x10E6/uL
same,HEMATOCRIT,[2],40.63%
same,HEMOGLOBIN,[2],16.17 G/DL
same,LEUKOCYTE COUNT,[2],18.93 x10E3/uL
same,LYMPHOCYTE,[2],61.33%
same,MEAN CORPUSCULAR HEMOGLOBIN,[2],24.47 pg
same,MEAN CORPUSCULAR HEMOGLOBIN CONCENTRATION,[2],39.8 G/DL
same,MEAN CORPUSCULAR VOLUME,[2],61.5 fL
same,MONOCYTE,[2],4%
same,NEUTROPHIL,[2],34.67%
same,NUCLEATED RED BLOOD CELLS,[2],0 /100WBC
same,PLATELET COUNT,[2],1516.67 x10E3/uL
same,ALANINE AMINOTRANSFERASE,[2],61 u/L
same,ALBUMIN,[2],3.93 G/DL
same,ALKALINE PHOSPHATASE,[2],306.67 u/L
same,ASPARTATE AMINOTRANSFERASE,[2],172.33 u/L
same,BLOOD UREA NITROGEN,[2],58 mg/dL
same,CARBON DIOXIDE,[2],23.33 mmol/L
same,CHLORIDE,[2],96 MEQ/L
same,CHOLESTEROL,[2],67.33 mg/dL
same,CREATINE PHOSPHOKINASE,[2],987.33 u/L
same,CREATININE,[2],0.52 mg/dL
same,GLUCOSE,[2],154.33 mg/dL
same,LACTATE DEHYDROGENASE,[2],310.33 u/L
same,LIPASE,[2],8 u/L
same,PHOSPHORUS,[2],12.97 mg/dL
same,POTASSIUM,[2],6.5 MEQ/L
same,SODIUM,[2],140.77 MEQ/L
same,TOTAL BILIRUBIN,[2],0.27 mg/dL
same,TOTAL PROTEIN,[2],6.13 G/DL
same,URIC ACID,[2],2.17 mg/dL
same,ABSOLUTE BASOPHIL,[3],0 CELLS/uL
same,ABSOLUTE EOSINOPHIL,[3],46 CELLS/uL
same,ABSOLUTE LYMPHOCYTE,[3],9488.67 CELLS/uL
same,ABSOLUTE MONOCYTE,[3],118.67 CELLS/uL
same,ABSOLUTE SEGMENTED NEUTROPHIL,[3],2180 CELLS/uL
same,BASOPHIL,[3],0%
same,EOSINOPHIL,[3],0.33%
same,ERYTHROCYTE COUNT,[3],6.57 x10E6/uL
same,HEMATOCRIT,[3],38.83%
same,HEMOGLOBIN,[3],15.23 G/DL
same,LEUKOCYTE COUNT,[3],11.83 x10E3/uL
same,LYMPHOCYTE,[3],81.33%
same,MEAN CORPUSCULAR HEMOGLOBIN,[3],23.2 pg
same,MEAN CORPUSCULAR HEMOGLOBIN CONCENTRATION,[3],39.23 G/DL
same,MEAN CORPUSCULAR VOLUME,[3],59.1 fL
same,MONOCYTE,[3],1%
same,NEUTROPHIL,[3],17.33%
same,NUCLEATED RED BLOOD CELLS,[3],0 /100WBC
same,PLATELET COUNT,[3],916 x10E3/uL
same,ALANINE AMINOTRANSFERASE,[3],33.67 u/L
same,ALBUMIN,[3],4.07 G/DL
same,ALKALINE PHOSPHATASE,[3],207 u/L
same,ASPARTATE AMINOTRANSFERASE,[3],74 u/L
same,BLOOD UREA NITROGEN,[3],20.67 mg/dL
same,CARBON DIOXIDE,[3],30.67 mmol/L
same,CHLORIDE,[3],104 MEQ/L
same,CHOLESTEROL,[3],62.67 mg/dL
same,CREATINE PHOSPHOKINASE,[3],177 u/L
same,CREATININE,[3],0.25 mg/dL
same,GLUCOSE,[3],163 mg/dL
same,LACTATE DEHYDROGENASE,[3],128 u/L
same,LIPASE,[3],9 u/L
same,PHOSPHORUS,[3],8.13 mg/dL
same,POTASSIUM,[3],5.61 MEQ/L
same,SODIUM,[3],148.9 MEQ/L
same,TOTAL BILIRUBIN,[3],0.2 mg/dL
same,TOTAL PROTEIN,[3],5.9 G/DL
same,URIC ACID,[3],0.7 mg/dL
